Patent US6696600B2, “L-DOPA ethyl ester salts and uses thereof” (priority 2001, dated 2004)
Like-named read-outs stand apart in the source and are kept apart here.

Key:
Format in all cases: physicochemical
[1] = pKa and delta pKa (pKa LDEE − pKa acid)
From the text: Preparation and selection of salts that have different physical properties are detailed in the literature. […]. PKa of LDEE free base is known to be 7.24 [8]. […]. This fact is illustrated in Example 1 below, in which the crystallization of LDEE palmitate was attempted. After dissolution of LDEE base and palmitic acid in absolute alcohol, the solution was cooled, and instead of forming a new salt, pure palmitic acid was crystallized out, and no solid crystalline salt was formed. […]

pH of water solution = experiment: pH of water solution
[2] = Hygroscopicity test: weight gain of solid sample in humidity chamber at RH=80%; details: for hygroscopicity (in words): RH=80% screening; for weight gain in hygroscopicity test: T=20±2° C.
From the text: There are many methods of quantitative evaluation of hygroscopicity of solid products without measuring the hygroscopic point. The most widely used method is based on measuring the weight gain of a solid sample in a humidity chamber. […] This method was used for screening the hygroscopicity of several LDEE salts. It also provides a comparison of the hygroscopic properties of different solids by comparison of water absorption rates under the same conditions.

Molecule	delta pKa pKaLDEE − pKaacid (first value) [1]	delta pKa pKaLDEE − pKaacid (second value) [1]	delta pKa pKaLDEE − pKaacid (third value) [1]	pH of water solution (pH of water solution)	Color stability at RH = 80% ([2]; RH = 80%) [h]	Mean water absorption rate at RH = 80% ([2]; RH = 80%) [mol/kg/h]	Material appearance after 24 hrs at RH = 80% ([2]; RH = 80%)	Weight gain during 24 hrs at RH = 80%,% ([2]; RH = 80%) [%]	hygroscopicity (in words) [2]	weight gain in hygroscopicity test ([2]; RH=80%, during 24 hrs) [%]	delta pKa pKaLDEE − pKaacid (first value) ([1]; first pKa of the acid)	weight gain in hygroscopicity test ([2]; RH=80%, during 8 hrs) [%]	delta pKa pKaLDEE − pKaacid (second value) ([1]; second pKa of the acid)	delta pKa pKaLDEE − pKaacid (third value) ([1]; third pKa of the acid)	water absorption at RH=80% (in words) ([2]; RH = 80%)	appearance after exposure in a humidity chamber ([2]; RH=80%, about 24 hrs)
CCOC(=O)[C@@H](N)Cc1ccc(O)c(O)c1.O=C(O)CC(O)(CC(=O)O)C(=O)O [Example 13, LDEE Citrate]	4.11	4.28	0.84													
LDEE Palmitate [Example 20]	2.4															
CCO.CCOC(=O)[C@@H](N)Cc1ccc(O)c(O)c1.O=C(O)/C=C\C(=O)O [Example 28, LDEE Maleate Ethanolate]	5.35	1.02		6.4	3	0.07	Yellowish syrup	3.1	hygroscopic	3.1						
CCOC(=O)C(N)Cc1ccc(O)c(O)c1.O=C(O)C(O)c1ccccc1 (stereo not drawn) [Example 17, LDEE R(−)Mandelate]					>24	0.125	Semi-solid melt	5.4	hygroscopic	5.4	3.4					
CCOC(=O)[C@@H](N)Cc1ccc(O)c(O)c1.O=P(O)(O)O [Example 11, LDEE Phosphate]	5.09	0.04	−4.6		15	0.147	Semi-solid melt	6.4		6.4						
CCO.CCOC(=O)[C@@H](N)Cc1ccc(O)c(O)c1.CCOC(=O)[C@@H](N)Cc1ccc(O)c(O)c1.O=C(O)CCCCC(=O)O [Example 21, LDEE Adipate Ethanolate]	2.81	1.83		6	>24	0.121	Semi-solid melt	5.25	hygroscopic	5.25						
CCOC(=O)[C@@H](N)Cc1ccc(O)c(O)c1.O=C(O)c1ccccc1 [Example 8, LDEE Benzoate]	3.03				4.5	0.09	Semi-solid melt	4.1	hygroscopic	4.1						
CCO.CCOC(=O)[C@@H](N)Cc1ccc(O)c(O)c1.CCOC(=O)[C@@H](N)Cc1ccc(O)c(O)c1.O=C(O)CCC(=O)O [Example 22, LDEE Succinate Ethanolate]	3.08	1.63		6	>24	0.067	Semi-solid melt	2.9	hygroscopic			4.3				
CCOC(=O)[C@@H](N)Cc1ccc(O)c(O)c1.O=C(O)C(O)C(O)C(=O)O [Example 5, LDEE Hydrogen L(+)Tartrate]	4.26	2.90			19	0.23	Syrup	10.1	hygroscopic	10.1						
LDEE Ascorbate [Example 14]	3.14				0 to 5	0.162	Red semi-solid melt	7.0	hygroscopic	7.04						
LDEE Citrate [Example 12]					20	0.146	Semi-solid melt	6.3	hygroscopic	6.3	4.11		4.28	0.84		
LDEE Oleate [Example 26]	˜2.4															
CCOC(=O)[C@@H](N)Cc1ccc(O)c(O)c1.O=C(O)[C@@H](O)c1ccccc1 [Example 15, LDEE S(+)Mandelate]	3.4				>24	0.092	Semi-solid melt	4.0	hygroscopic	4.02						
CCOC(=O)C(N)Cc1ccc(O)c(O)c1.O=C(O)C(O)C(O)C(=O)O (mixture of isomers) [Example 7, LDEE (LD)Tartrate]	4.26	2.90			20	0.146	Syrup	6.3	hygroscopic	6.3						
Stearate	˜2.4															
LDEE Myristate [Example 27]	˜2.4				>48	0.002	White flowable powder	0.11	non-hygroscopic	0.11					did not absorb water	white flowable powder
CCOC(=O)C(N)Cc1ccc(O)c(O)c1.O=C(O)C(O)c1ccccc1 (stereo not drawn) [R(−)Mandelate from chloroform, LDEE R(−)Mandelate]					>24		Semi-solid melt									
CCOC(=O)[C@@H](N)Cc1ccc(O)c(O)c1.O=C(O)C(O)C(O)C(=O)O [Example 6, LDEE D(−)Tartrate]					20	0.155		6.7		6.7	4.26					
CCOC(=O)[C@@H](N)Cc1ccc(O)c(O)c1.O=C(O)C(O)C(O)C(=O)O [Example 4, LDEE L(+)Tartrate]	4.26	2.90			15	0.164	Syrup	7.1	hygroscopic	7.1						
CCOC(=O)[C@@H](N)Cc1ccc(O)c(O)c1.O=C(O)[C@@H](O)c1ccccc1 [Example 16, LDEE S(+)Mandelate]											3.4					
CCCCC(=O)O.CCOC(=O)[C@@H](N)Cc1ccc(O)c(O)c1 [Example 18, LDEE Valerate]	˜2.4															
